Data: PMC2856764 (Human immunology, 2010)
Ends that are not written are not given here.

Key:
Assay in all cases: biochemical
Format in all cases: binding
[1] = molecular target: HLA-A*0201 (Homo sapiens, UniProt P04439, D140Y/D185E/D98H/E176V/E277Q/G131W/G231S/I119V/I121R/I166T/I218V/L300P/L318F/N151K/N90K/P208A/P217A/Q86G/Q94H/R138H/R169H/T345S)
[2] = molecular target: HLA-A*0202 (Homo sapiens, UniProt P04439, D140Y/D185E/D98H/E176V/E277Q/G131W/G231S/I119L/I121R/I166T/I218V/L180W/L300P/L318F/N151K/N90K/P208A/P217A/Q67R/Q86G/Q94H/R138H/R169H/T345S)
[3] = molecular target: HLA-A*0203 (Homo sapiens, UniProt P04439, A173T/D140Y/D185E/D98H/E277Q/G131W/G231S/I119V/I121R/I166T/I218V/L180W/L300P/L318F/N151K/N90K/P208A/P217A/Q86G/Q94H/R138H/R169H/T345S)
[4] = molecular target: HLA-A*0206 (Homo sapiens, UniProt P04439, D140Y/D185E/D98H/E176V/E277Q/F33Y/G131W/G231S/I119V/I121R/I166T/I218V/L300P/L318F/N151K/N90K/P208A/P217A/Q86G/Q94H/R138H/R169H/T345S)
[5] = molecular target: HLA-A*6802 (Homo sapiens, UniProt P04439, A269V/D140Y/D185E/E176V/E277Q/E87N/F33Y/G231S/I121R/I166T/I218V/L180W/L300P/L318F/N151K/P208A/P217A/Q86R/R138H/R169H/S129P/T345S/V36M)
[6] = molecular target: HLA-A*0101 (Homo sapiens, UniProt P04439, A114D/A174V/A182V/D101N/D185E/E176A/E190D/L180R/Q94H/R68K/S129P/T187R/V100A/V91M/W191G)
[7] = molecular target: HLA-A*2601 (Homo sapiens, UniProt P04439, A114D/A173T/A270S/D101N/D185E/E277Q/E87N/F33Y/G231S/I121R/I218V/K168Q/L180W/L300P/L318F/P208A/P217A/Q86R/Q94H/R138Q/S129P/T187R/T323A/T345S/V100A/V358M)
[8] = molecular target: HLA-A*2902 (Homo sapiens, UniProt P04439, A270S/D101N/D185E/E176V/E277Q/E87Q/F33T/G231S/H175R/I121M/I218V/I322F/K168Q/L300P/L318F/M331R/P208A/P217A/Q86L/T323A/T345S/V100A/V358M)
[9] = molecular target: HLA-A*3002 (Homo sapiens, UniProt P04439, D101N/D140H/D185E/E176R/F33S/G80R/H175R/K168Q/Q94H/R138E/R41S/V100E)
[10] = molecular target: HLA-A*0301 (Homo sapiens, UniProt P04439)
[11] = molecular target: HLA-A*1101 (Homo sapiens, UniProt P04439, A114D/D185E/E176A/F33Y/L180Q/S129P/T187R)
[12] = molecular target: HLA-A*3101 (Homo sapiens, UniProt P04439, A270S/D185E/E176V/E277Q/F33T/G231S/G80R/H175R/I121M/I218V/I322F/K168Q/L300P/L318F/M331R/P217A/Q94H/R138Q/T323A/T345S/T97I/V358M)
[13] = molecular target: HLA-A*3301 (Homo sapiens, UniProt P04439, A270S/D185E/E176V/E277Q/E87N/F33T/G231S/H175R/I121M/I218V/I322F/K168Q/K210R/L300P/L318F/M331R/P217A/Q86R/Q94H/R138Q/T323A/T345S/T97I/V358M/Y195H)
[14] = molecular target: HLA-A*6801 (Homo sapiens, UniProt P04439, A269V/D185E/E176V/E277Q/E87N/F33Y/G231S/I121M/I166T/I218V/L180W/L300P/L318F/N151K/P208A/P217A/Q86R/R169H/T345S)
[15] = molecular target: HLA-A*2301 (Homo sapiens, UniProt P04439, D101N/D140Y/D185E/E176V/E190D/F33S/G103R/G107R/H175R/I119L/I121M/I306V/K168Q/K335N/L105A/L300P/N151K/N90K/P307H/Q86E/Q94H/R106L/R138H/R89G/T104I/T345S/V100E/W191G/Y123F)
[16] = molecular target: HLA-A*2402 (Homo sapiens, UniProt P04439, D101N/D140Y/D185E/E176V/E190D/F33S/G103R/G107R/I119L/I121M/I306V/K335N/L105A/L180Q/L300P/N151K/N90K/Q86E/Q94H/R106L/R138H/R89G/T104I/T345S/V100E/W191G/Y123F)
[17] = molecular target: HLA-B*1801 (Homo sapiens, UniProt P01889, A329T/A93T/A95T/C349S/D201E/D54G/D98Y/E176V/E187T/E204Q/E69T/K202T/Q94N/R155S/R180L/S121R/V306I/Y140S/Y195H/Y33H/Y91S)
[18] = molecular target: HLA-B*4001 (Homo sapiens, UniProt P01889, A65T/A93T/A95T/D138N/D98Y/E176V/E69K/N87E/Q56L/Q94N/R180L/S121R/S35A/S48T/T167S/V36M/W171L/Y33H/Y91S)
[19] = molecular target: HLA-B*4002 (Homo sapiens, UniProt P01889, A65T/A93T/A95T/D138N/D201E/D98Y/E176V/E204Q/E69K/K202T/N87E/Q56L/Q94N/R180L/S48T/Y33H/Y91S)
[20] = molecular target: HLA-B*4402 (Homo sapiens, UniProt P01889, A223V/A65T/A93T/A95T/D201E/D98Y/E176V/E187L/E204Q/E69K/G107R/H137Y/K202T/L105A/L119I/N104T/N87E/Q56L/Q94N/R106L/R155S/R180D/S101N/S121R/S35A/S48T/T118I/V36M/W191S/Y140D/Y91S)
[21] = molecular target: HLA-B*4403 (Homo sapiens, UniProt P01889, A223V/A65T/A93T/A95T/D201E/D98Y/E176V/E187L/E204Q/E69K/G107R/H137Y/K202T/L105A/L119I/N104T/N87E/Q56L/Q94N/R106L/R155S/R180L/S101N/S121R/S35A/S48T/T118I/V36M/W191S/Y140D/Y91S)
[22] = molecular target: HLA-B*4501 (Homo sapiens, UniProt P01889, A329T/A65T/A93T/A95T/C349S/D138N/D201E/D98Y/E176V/E187L/E204Q/E69K/H137Y/K202T/L119W/N87E/Q56L/Q94N/R155S/R180D/S121R/S35A/S48T/V127L/V306I/V36M/W191S/Y140L/Y33H/Y91S)

**Q.** For FQVDCFLWHV [NS1.9], which IC50 [1] is on record?
**A.** 4 nM

**Q.** What about the IC50 [2] of the same sequence?
**A.** 4 nM

**Q.** What about the IC50 [3] of the same sequence?
**A.** 3 nM

**Q.** What about the IC50 [4] of the same sequence?
**A.** 1 nM

**Q.** And the IC50 [5]?
**A.** 219 nM

**Q.** YSHGTGTGY [PB1.30] was tested. Which IC50 [6] did it give?
**A.** 199 nM

**Q.** And the IC50 [7]?
**A.** 5 nM

**Q.** What about the IC50 [8] of the same sequence?
**A.** 486 nM

**Q.** And the IC50 [9]?
**A.** 131 nM

**Q.** Which results are given for LVSDGGPNLY [PB1.590]?
**A.** IC50 [6]: 399 nM; IC50 [7]: 156 nM; IC50 [8]: 479 nM; IC50 [9]: 57 nM

**Q.** Which results are given for ASCMGLIYNR [M1.125]?
**A.** IC50 [10]: 816 nM; IC50 [11]: 32 nM; IC50 [12]: 7 nM; IC50 [13]: 445 nM; IC50 [14]: 391 nM

**Q.** For NMLSTVLGV [PB1.413], which IC50 [1] is on record?
**A.** 4 nM

**Q.** And the IC50 [2]?
**A.** 5 nM

**Q.** And the IC50 [3]?
**A.** 11 nM

**Q.** And the IC50 [4]?
**A.** 3 nM

**Q.** What about the IC50 [5] of the same sequence?
**A.** 1060 nM

**Q.** Which IC50 [1] does the source give for FQGRGVFEL [NP.458] here?
**A.** 143 nM

**Q.** And the IC50 [2]?
**A.** 7 nM

**Q.** What about the IC50 [3] of the same sequence?
**A.** 307 nM

**Q.** And the IC50 [4]?
**A.** 7 nM

**Q.** What about the IC50 [5] of the same sequence?
**A.** > 10000 nM

**Q.** FYIQMCTEL [NP.39] was tested. Which IC50 [8] did it give?
**A.** 1560 nM

**Q.** What about the IC50 [9] of the same sequence?
**A.** > 10000 nM

**Q.** What about the IC50 [15] of the same sequence?
**A.** 8 nM

**Q.** And the IC50 [16]?
**A.** 24 nM

**Q.** TEVETYVLSI [M1.5] was tested. Which IC50 [17] did it give?
**A.** 136 nM

**Q.** And the IC50 [18]?
**A.** 133 nM

**Q.** And the IC50 [19]?
**A.** 195 nM

**Q.** And the IC50 [20]?
**A.** 6880 nM

**Q.** And the IC50 [21]?
**A.** 247 nM

**Q.** And the IC50 [22]?
**A.** 504 nM

**Q.** For KFLPDLYDYK [PA.104], which IC50 [10] is on record?
**A.** 255 nM

**Q.** And the IC50 [11]?
**A.** 22 nM

**Q.** What about the IC50 [12] of the same sequence?
**A.** 2410 nM

**Q.** And the IC50 [13]?
**A.** > 10000 nM

**Q.** And the IC50 [14]?
**A.** 507 nM

**Q.** Which IC50 [17] does the source give for QEIRTFSFQL [NS2.184] here?
**A.** 515 nM

**Q.** And the IC50 [18]?
**A.** 135 nM

**Q.** What about the IC50 [19] of the same sequence?
**A.** 68 nM

**Q.** What about the IC50 [20] of the same sequence?
**A.** 102 nM

**Q.** And the IC50 [21]?
**A.** 431 nM

**Q.** And the IC50 [22]?
**A.** 380 nM

**Q.** Which IC50 [1] does the source give for GLFGAIAGFI [HA.345] here?
**A.** 41 nM

**Q.** And the IC50 [2]?
**A.** 0.4 nM

**Q.** What about the IC50 [3] of the same sequence?
**A.** 1 nM

**Q.** What about the IC50 [4] of the same sequence?
**A.** 2540 nM

**Q.** And the IC50 [5]?
**A.** 1530 nM

**Q.** With GERQNATEI [NP.17] as the sequence, how does the IC50 [17] read?
**A.** > 10000 nM

**Q.** And the IC50 [18]?
**A.** 199 nM

**Q.** What about the IC50 [19] of the same sequence?
**A.** 53 nM

**Q.** What about the IC50 [20] of the same sequence?
**A.** > 10000 nM

**Q.** What about the IC50 [21] of the same sequence?
**A.** > 10000 nM

**Q.** What about the IC50 [22] of the same sequence?
**A.** 304 nM
